Reference: US6469000B1, “1,3-diheterocyclic metalloprotease inhibitors” (The Procter & Gamble Co., priority 1996, dated 2002)

Columns and labels:
Type in all cases: in vivo
[1] = tested on: human subject suffering from osteoarthritis; experiment: Example B: capsule given daily to a subject with osteoarthritis; details: capsule containing 70 mg of Example 3 daily for 5 years, 90 kg person
Procedure: A capsule for oral administration, according to the present invention, is made comprising:
A human subject weighing 90 kg (198 lbs), suffering from osteoarthritis, is treated by a method of this invention. Specifically, for 5 years, a capsule containing 70 mg of Example 3 is administered daily to said subject.

[2] = tested on: patient suffering from chemical burns; experiment: Example D: topical composition applied to chemical burns; details: 0.20% w/v Compound of Example 3, topical, at each dressing change (b.i.d.)
From the text: An topical composition for local administration, according to the present invention, is made comprising:
A patient suffering from chemical burns applies the composition at each dressing change (b.i.d.).

[3] = tested on: human subject suffering from rheumatoid arthritis; experiment: Example A: tablets given orally to a subject with rheumatoid arthritis; details: tablet with 15 mg Example 9, three tablets per day orally for 2 years, 60 kg person
Procedure: A tablet composition for oral administration, according to the present invention, is made comprising:
A human subject weighing 60 kg (132 lbs), suffering from rheumatoid arthritis, is treated by a method of this invention. Specifically, for 2 years, a regimen of three tablets per day is administered orally to said subject.

Row | Compound | erosion/fibrillation of the articular cartilage, examined via orthoscopy [1] | scarring after chemical burns [2] | inflammation at the end of the treatment period [3] | mobility at the end of the treatment period [3]
1 | COc1ccc(S(=O)(=O)N2CCCN(S(C)(=O)=O)C2C(=O)NO)cc1 (racemic) [Example 3, N-hydroxy 1-[(4-methoxyphenyl)sulfonyl]-3-[methylsulphonyl]-hexahydro-pyrimidine-2(R, S)-carboxamide] | no further advancement of erosion/fibrillation of the articular cartilage | substantially diminished | – | –
2 | COc1ccc(S(=O)(=O)N2CC(C)(C)C(=O)N(Cc3ccccc3)C2C(=O)NO)cc1 (stereo not shown) [Example 9, N-hydroxy-1-[(4-methoxyphenyl)sulfonyl]-3-phenylmethyl-4-oxo-5,5-dimethyl-hexahydro-pyrimidin-2-carboxamide] | – | – | reduced inflammation | improved mobility without concomitant pain
